Here are results for 5 compounds from patent publication US20220348569A1 (priority 2021, published 2022).

In this experiment the test system is SARS-CoV-2 pseudoviruses carrying spike mutations of B.1.1.7 UK, B.1.351 RSA and B.1.617.2 India (Delta) variants. In kind it is cell-based.

The structures appear in SMILES notation. Values joined by “and” are separate entries in the source; they are usually repeats but may differ in a detail not shown here. Equal values may be shown once. Read-outs that look alike come from different tables or passages of the source. A value given as a limit tells only on which side of the number the result lay.

`O=C(O)c1cc(-c2ccc(/C=C3\SC(=S)N(CCc4ccccc4)C3=O)o2)ccc1Cl` [Compound 1, (Z)-2-Chloro-5-(5-((4-oxo-3-phenethyl-2-thioxothiazolidin-5-ylidene)methyl)furan-2-yl)benzoic acid]: the “antiviral activity against mutant pseudoviruses (in words)” value (shortened to “antiviral activity”) is “potent antiviral activity against all mutant pseudoviruses”. Besides, the IC50 (read-out: IC50) is 57 nM and 33 nM. For `O=C(O)c1cccc(-c2ccc(/C=C3\SC(=S)N(CCc4ccccc4)C3=O)o2)c1` [Compound 2], the “antiviral activity” value is listed as “highly potent inhibitor against all mutant pseudoviruses”. Moreover, the IC50 (read-out: IC50 in the range for all the pseudovirus variants) was 35 to 88.7 nM. As for `O=C(O)c1cc(-c2ccc(/C=C3\SC(=S)N(CCc4ccccc4)C3=O)o2)ccc1F` [Compound 3], the “antiviral activity” value is “slightly less efficient against all the pseudoviruses tested”. For the same compound, the IC50 (read-out: IC50) came out at 232 ± 17 nM. With `Cc1ccc(-c2ccc(/C=C3\SC(=S)N(CCc4ccccc4)C3=O)o2)cc1C(=O)O` [Compound 4], under “read-out: IC50 against B.1.617.2 Delta single, double and triple mutant variants”, the IC50 is 148 to 239 nM. With `Cc1c(C(=O)O)cccc1-c1ccc(/C=C2\SC(=S)N(CCc3ccccc3)C2=O)o1` [Compound 5], the “antiviral activity” value is listed as “poor/no activity”. The IC50 (read-out: IC50) was > 2000 nM and 1730 nM and 1850 nM and 1720 nM.
